Results reported in ChEMBL document CHEMBL3991601, “The target landscape of clinical kinase drugs” (Science, 2017).
Calls of active or inactive are those of the source. Cut-off read from the data, not from the text of the source, for most assays here: actives have a measured Kd and inactives only a lower limit.

Assays:
[1] = molecular target: Tyrosine-protein kinase JAK1 (Homo sapiens, UniProt P23458)
[2] = molecular target: Serine/threonine-protein kinase PAK 4 (Homo sapiens, UniProt O96013)
[3] = molecular target: T1, Beta-adrenergic receptor kinase 1 (Homo sapiens, UniProt P25098)
T1 sequence (P25098 whole entry): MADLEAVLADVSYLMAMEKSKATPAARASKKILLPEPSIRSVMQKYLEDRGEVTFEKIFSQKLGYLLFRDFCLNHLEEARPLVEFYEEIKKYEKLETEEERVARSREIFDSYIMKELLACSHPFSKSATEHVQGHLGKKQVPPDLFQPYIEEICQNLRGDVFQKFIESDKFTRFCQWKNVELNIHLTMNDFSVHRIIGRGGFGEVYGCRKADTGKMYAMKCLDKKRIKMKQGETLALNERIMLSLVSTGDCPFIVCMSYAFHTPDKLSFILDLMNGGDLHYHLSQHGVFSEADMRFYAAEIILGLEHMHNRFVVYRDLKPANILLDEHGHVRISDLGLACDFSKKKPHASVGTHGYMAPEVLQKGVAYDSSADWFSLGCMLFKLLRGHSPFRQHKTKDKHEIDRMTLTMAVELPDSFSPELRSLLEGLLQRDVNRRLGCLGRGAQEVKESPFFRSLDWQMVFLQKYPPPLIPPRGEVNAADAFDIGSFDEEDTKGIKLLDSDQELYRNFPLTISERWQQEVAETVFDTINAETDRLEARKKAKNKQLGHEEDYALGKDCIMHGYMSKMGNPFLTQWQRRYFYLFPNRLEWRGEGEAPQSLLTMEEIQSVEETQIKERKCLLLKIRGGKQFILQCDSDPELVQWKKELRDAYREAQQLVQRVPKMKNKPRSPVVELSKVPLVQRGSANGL

[4] = molecular target: T2, Peroxisomal acyl-coenzyme A oxidase 1 (Homo sapiens, UniProt Q15067)
T2 sequence (Q15067 whole entry): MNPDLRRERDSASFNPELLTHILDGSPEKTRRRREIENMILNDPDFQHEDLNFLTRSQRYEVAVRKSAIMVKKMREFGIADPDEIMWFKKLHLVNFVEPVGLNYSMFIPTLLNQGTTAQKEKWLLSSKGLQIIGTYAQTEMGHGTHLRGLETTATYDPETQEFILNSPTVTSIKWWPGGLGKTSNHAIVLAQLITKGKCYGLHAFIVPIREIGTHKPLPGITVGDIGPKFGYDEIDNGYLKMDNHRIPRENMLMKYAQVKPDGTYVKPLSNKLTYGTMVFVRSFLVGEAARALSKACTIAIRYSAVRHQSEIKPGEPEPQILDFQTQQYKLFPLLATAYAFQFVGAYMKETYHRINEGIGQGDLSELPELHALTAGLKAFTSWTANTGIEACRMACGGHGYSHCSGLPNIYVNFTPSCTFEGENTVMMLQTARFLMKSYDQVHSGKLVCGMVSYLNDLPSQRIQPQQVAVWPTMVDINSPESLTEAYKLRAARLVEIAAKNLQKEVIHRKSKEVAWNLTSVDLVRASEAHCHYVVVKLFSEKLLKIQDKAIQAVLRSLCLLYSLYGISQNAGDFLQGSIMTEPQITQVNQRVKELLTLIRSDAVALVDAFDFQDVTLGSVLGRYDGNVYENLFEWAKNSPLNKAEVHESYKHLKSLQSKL

[5] = molecular target: T3, Discoidin domain-containing receptor 2 (Homo sapiens, UniProt Q16832)
T3 sequence (Q16832 whole entry): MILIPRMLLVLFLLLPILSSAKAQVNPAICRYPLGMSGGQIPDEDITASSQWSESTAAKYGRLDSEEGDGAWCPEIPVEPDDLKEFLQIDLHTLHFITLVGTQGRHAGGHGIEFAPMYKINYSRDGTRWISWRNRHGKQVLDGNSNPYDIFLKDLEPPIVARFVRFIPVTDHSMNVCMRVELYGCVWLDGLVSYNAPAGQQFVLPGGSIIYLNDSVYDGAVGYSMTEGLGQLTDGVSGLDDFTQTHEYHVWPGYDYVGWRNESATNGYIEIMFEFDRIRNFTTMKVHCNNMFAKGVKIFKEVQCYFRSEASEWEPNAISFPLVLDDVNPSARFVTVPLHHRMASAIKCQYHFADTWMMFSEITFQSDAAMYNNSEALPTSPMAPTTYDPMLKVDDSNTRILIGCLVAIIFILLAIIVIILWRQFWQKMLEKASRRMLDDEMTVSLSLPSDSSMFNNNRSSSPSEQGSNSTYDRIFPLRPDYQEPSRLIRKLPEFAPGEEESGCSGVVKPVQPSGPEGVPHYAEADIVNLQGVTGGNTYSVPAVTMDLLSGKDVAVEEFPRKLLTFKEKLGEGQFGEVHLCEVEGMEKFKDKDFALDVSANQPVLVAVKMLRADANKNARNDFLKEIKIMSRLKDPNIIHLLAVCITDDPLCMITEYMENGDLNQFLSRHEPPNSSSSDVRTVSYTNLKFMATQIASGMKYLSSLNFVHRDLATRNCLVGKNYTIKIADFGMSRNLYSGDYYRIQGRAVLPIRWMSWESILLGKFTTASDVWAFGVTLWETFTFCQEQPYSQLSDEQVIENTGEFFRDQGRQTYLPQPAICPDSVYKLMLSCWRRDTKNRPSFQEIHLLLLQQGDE
Note: in the data inactive means no Kd found up to 30 µM.

Sequence of Tyrosine-protein kinase JAK1 (P23458 whole entry): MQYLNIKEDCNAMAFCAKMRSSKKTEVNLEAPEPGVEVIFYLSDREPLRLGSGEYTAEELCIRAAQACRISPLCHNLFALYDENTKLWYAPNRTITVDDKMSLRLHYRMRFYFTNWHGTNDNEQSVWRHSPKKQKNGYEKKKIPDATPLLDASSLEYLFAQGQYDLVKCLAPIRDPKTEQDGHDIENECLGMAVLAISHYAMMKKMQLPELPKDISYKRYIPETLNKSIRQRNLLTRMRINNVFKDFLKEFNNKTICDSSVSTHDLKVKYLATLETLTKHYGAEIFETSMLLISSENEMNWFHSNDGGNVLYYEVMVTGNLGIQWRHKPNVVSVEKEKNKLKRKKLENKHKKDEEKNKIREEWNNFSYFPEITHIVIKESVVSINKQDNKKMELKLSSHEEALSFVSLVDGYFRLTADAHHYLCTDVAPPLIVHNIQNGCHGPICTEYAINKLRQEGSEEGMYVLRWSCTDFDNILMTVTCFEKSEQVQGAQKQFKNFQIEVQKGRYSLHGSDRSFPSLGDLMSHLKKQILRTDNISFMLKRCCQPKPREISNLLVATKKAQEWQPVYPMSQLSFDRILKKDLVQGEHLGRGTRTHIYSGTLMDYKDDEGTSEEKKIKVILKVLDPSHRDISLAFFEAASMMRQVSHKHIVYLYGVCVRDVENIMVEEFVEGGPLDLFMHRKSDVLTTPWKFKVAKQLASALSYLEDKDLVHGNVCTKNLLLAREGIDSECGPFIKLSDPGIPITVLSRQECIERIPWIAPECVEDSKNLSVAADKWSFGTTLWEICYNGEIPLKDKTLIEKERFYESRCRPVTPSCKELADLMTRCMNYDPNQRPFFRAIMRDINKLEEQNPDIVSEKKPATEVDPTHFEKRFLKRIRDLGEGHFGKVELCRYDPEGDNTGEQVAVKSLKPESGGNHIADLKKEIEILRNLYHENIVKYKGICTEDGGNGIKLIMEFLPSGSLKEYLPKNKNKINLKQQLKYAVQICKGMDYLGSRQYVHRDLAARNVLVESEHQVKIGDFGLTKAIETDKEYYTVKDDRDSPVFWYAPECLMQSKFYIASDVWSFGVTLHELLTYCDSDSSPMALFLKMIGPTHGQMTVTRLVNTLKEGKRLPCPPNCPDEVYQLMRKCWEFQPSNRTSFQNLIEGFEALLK
Sequence of Serine/threonine-protein kinase PAK 4 (O96013 whole entry): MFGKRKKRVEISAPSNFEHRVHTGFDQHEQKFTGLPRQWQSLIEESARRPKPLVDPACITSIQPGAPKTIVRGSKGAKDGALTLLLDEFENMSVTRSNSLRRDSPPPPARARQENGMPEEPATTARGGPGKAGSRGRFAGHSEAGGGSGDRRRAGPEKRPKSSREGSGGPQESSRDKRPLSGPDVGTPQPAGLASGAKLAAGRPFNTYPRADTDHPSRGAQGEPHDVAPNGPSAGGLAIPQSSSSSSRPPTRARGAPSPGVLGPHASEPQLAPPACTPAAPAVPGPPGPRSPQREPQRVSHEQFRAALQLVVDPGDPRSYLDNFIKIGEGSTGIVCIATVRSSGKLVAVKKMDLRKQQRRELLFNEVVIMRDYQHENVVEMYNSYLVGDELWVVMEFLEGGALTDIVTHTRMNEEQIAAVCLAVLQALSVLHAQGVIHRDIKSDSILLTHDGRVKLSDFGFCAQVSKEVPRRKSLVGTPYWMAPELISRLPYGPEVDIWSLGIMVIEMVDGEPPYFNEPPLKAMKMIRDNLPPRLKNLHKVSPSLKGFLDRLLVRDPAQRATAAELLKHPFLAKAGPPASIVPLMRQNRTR

Structure (SMILES)	Kd [1]	Kd [2]	Kd [3]	Kd [4]	Kd [5]
O=c1[nH]c([C@@H]2CCCN2)nc2c1oc1ccc(Cl)cc12	> 30 µM (inactive)	> 30 µM (inactive)	> 30 µM (inactive)	> 30 µM (inactive)	> 30 µM (inactive)
Cn1cc(-c2[nH]c3cc(NC(=O)[C@H](N)C4CCCCC4)cc4c3c2C=NNC4=O)cn1	–	0.053 µM (active)	3.56 µM (active)	> 30 µM (inactive)	> 30 µM (inactive)
Cc1c(NC(=O)OC[C@@H]2COCCN2)cn2ncnc(Nc3ccc4c(cnn4Cc4cccc(F)c4)c3)c12 [AC-480]	> 30 µM (inactive)	> 30 µM (inactive)	> 30 µM (inactive)	> 30 µM (inactive)	> 30 µM (inactive)
CCc1cc2c(cc1N1CCC(N3CCOCC3)CC1)C(C)(C)c1[nH]c3cc(C#N)ccc3c1C2=O [ALECTINIB]	> 30 µM (inactive)	> 30 µM (inactive)	> 30 µM (inactive)	0.271 µM	> 30 µM (inactive)
S=C(NCc1ccc2c(c1)OCO2)N1CCN(c2ncnc3c2oc2ccccc23)CC1 [AMUVATINIB]	> 30 µM (inactive)	> 30 µM (inactive)	> 30 µM (inactive)	> 30 µM (inactive)	> 30 µM (inactive)
NC[C@@](O)(c1ccc(Cl)cc1)c1ccc(-c2cn[nH]c2)cc1 [AT-13148]	> 30 µM (inactive)	> 30 µM (inactive)	0.17 µM (active)	> 30 µM (inactive)	> 30 µM (inactive)
COc1ccc(-c2ccc3ncc4c(c3c2)n(-c2ccc(N3CCNCC3)c(C(F)(F)F)c2)c(=O)n4C)cn1 [BGT-226 FREE BASE]	> 30 µM (inactive)	> 30 µM (inactive)	> 30 µM (inactive)	> 30 µM (inactive)	> 30 µM (inactive)
COc1cc2nccc(Oc3ccc(NC(=O)C4(C(=O)Nc5ccc(F)cc5)CC4)cc3)c2cc1OC [CABOZANTINIB]	> 30 µM (inactive)	> 30 µM (inactive)	> 30 µM (inactive)	> 30 µM (inactive)	0.501 µM (active)
COc1cc2ncnc(Nc3ccc(F)c(Cl)c3)c2cc1NC(=O)/C=C/CN1CCCCC1 [DACOMITINIB ANHYDROUS]	> 30 µM (inactive)	> 30 µM (inactive)	> 30 µM (inactive)	> 30 µM (inactive)	> 30 µM (inactive)
CC[C@@](C)(Nc1ccnc(-c2c[nH]c3ncccc23)n1)C(=O)NCC(F)(F)F [DECERNOTINIB]	> 30 µM (inactive)	> 30 µM (inactive)	> 30 µM (inactive)	> 30 µM (inactive)	> 30 µM (inactive)
O=S(=O)(c1cccc2cnccc12)N1CCCNCC1 [FASUDIL]	> 30 µM (inactive)	> 30 µM (inactive)	> 30 µM (inactive)	> 30 µM (inactive)	> 30 µM (inactive)
COc1cc(Nc2ncc(F)c(Nc3ccc4c(n3)N(COP(=O)(O)O)C(=O)C(C)(C)O4)n2)cc(OC)c1OC [FOSTAMATINIB]	> 30 µM (inactive)	> 30 µM (inactive)	> 30 µM (inactive)	> 30 µM (inactive)	> 30 µM (inactive)
Cc1c(Cn2c(C)nc3c(C(=O)O)cc(N4CCOCC4)cc32)cccc1C(F)(F)F [GSK-2636771]	> 30 µM (inactive)	> 30 µM (inactive)	> 30 µM (inactive)	> 30 µM (inactive)	> 30 µM (inactive)
O=S(=O)(c1cccc2c(O)nccc12)N1CCCNCC1 [HYDROXYFASUDIL]	> 30 µM (inactive)	> 30 µM (inactive)	> 30 µM (inactive)	> 30 µM (inactive)	> 30 µM (inactive)
C#Cc1cccc(Nc2ncnc3cc4c(cc23)OCCOCCOCCO4)c1 [ICOTINIB]	> 30 µM (inactive)	> 30 µM (inactive)	> 30 µM (inactive)	> 30 µM (inactive)	> 30 µM (inactive)
Cc1ccc(C(=O)Nc2ccc(Oc3cc4cnn(C)c4cc3-c3cn[nH]c3)c(F)c2)c(=O)n1-c1ccc(F)cc1 [MERESTINIB]	> 30 µM (inactive)	> 30 µM (inactive)	> 30 µM (inactive)	> 30 µM (inactive)	0.908 µM (active)
O=C(NOC[C@H](O)CO)c1ccc(F)c(F)c1Nc1ccc(I)cc1F [MIRDAMETINIB]	> 30 µM (inactive)	> 30 µM (inactive)	> 30 µM (inactive)	> 30 µM (inactive)	> 30 µM (inactive)
C=CC(=O)Nc1cc(Nc2nccc(-c3cn(C)c4ccccc34)n2)c(OC)cc1N(C)CCN(C)C [OSIMERTINIB]	> 30 µM (inactive)	> 30 µM (inactive)	> 30 µM (inactive)	> 30 µM (inactive)	> 30 µM (inactive)
CN1CCN(c2nc(C3=C(c4c[nH]c5ccccc45)C(=O)NC3=O)c3ccccc3n2)CC1 [SOTRASTAURIN]	> 30 µM (inactive)	> 30 µM (inactive)	> 30 µM (inactive)	–	> 30 µM (inactive)

More lines, now with the values ahead:

Kd [1]	Kd [2]	Kd [3]	Kd [4]	Kd [5]	Structure (SMILES)
> 30 µM (inactive)	> 30 µM (inactive)	> 30 µM (inactive)	> 30 µM (inactive)	> 30 µM (inactive)	COc1ccc2c(OCc3nnc4ccc(-c5ccccc5)nn34)ccnc2c1 [AMG-208]
> 30 µM (inactive)	1.88 µM (active)	> 30 µM (inactive)	> 30 µM (inactive)	> 30 µM (inactive)	Cc1cc(Nc2nc(N[C@@H](C)c3ncc(F)cn3)ncc2Cl)n[nH]1 [AZD-1480]
> 30 µM (inactive)	> 30 µM (inactive)	> 30 µM (inactive)	> 30 µM (inactive)	> 30 µM (inactive)	COc1cccc(Nc2ncnn3ccc(CN4CC[C@@H](N)[C@H](O)C4)c23)c1 [BMS-690514]
> 30 µM (inactive)	> 30 µM (inactive)	> 30 µM (inactive)	> 30 µM (inactive)	> 30 µM (inactive)	c1cc(OCCN2CCCCC2)cc(-c2n[nH]c3ccc(-c4nc[nH]n4)cc23)c1 [CC-401]
> 30 µM (inactive)	> 30 µM (inactive)	> 30 µM (inactive)	> 30 µM (inactive)	> 30 µM (inactive)	COc1cc2ncnc3c2cc1OCCCCCN(C)Cc1ccc(Br)cc1N3 [JNJ-26483327]
> 30 µM (inactive)	> 30 µM (inactive)	> 30 µM (inactive)	> 30 µM (inactive)	> 30 µM (inactive)	COc1cccc2cc(-c3nc([C@H]4CC[C@H](C(=O)O)CC4)n4ncnc(N)c34)[nH]c12 [OSI-027]
> 30 µM (inactive)	> 30 µM (inactive)	> 30 µM (inactive)	> 30 µM (inactive)	> 30 µM (inactive)	O=C(Nc1ccc(OC(F)(F)F)cc1)c1sccc1NCc1ccnc2ccccc12 [OSI-930]
> 30 µM (inactive)	> 30 µM (inactive)	> 30 µM (inactive)	–	19.3 µM (active)	Cc1cc(C(=O)Nc2cc(Oc3ccc4nc(NC(=O)C5CC5)cn4n3)ccc2C)n(C)n1 [TAK-593]
